# Laboratory results as given in publication PMC8096218, “Global RNA profiles show target selectivity and physiological effects of peptide-delivered antisense antibiotics” (Nucleic Acids Research, 2021).
# Read-outs that look alike come from different tables or passages of the source. Where a SMILES comes first, the peptide text is derived from it. [ ]: non-standard residue; d: D form. Ahx = NCCCCCC(=O)O
# How the values were obtained:
# [1] = test system: wild-type (wt) Salmonella enterica serovar Typhimurium strain SL1344
# Procedure: (§1) MIC values were determined by broth microdilution according to standard protocols with a few modifications ([26]). An overnight bacterial cell culture, supplemented with the appropriate antibiotic when needed, was diluted 1:100 in fresh MHB and grown to OD600 0.5. The obtained culture was diluted to ∼10^5 cfu/ml or 10^6 cfu/ml, as indicated, in non-cation-adjusted MHB. Subsequently, 190 μl bacterial solution was dispensed into a 96-well plate (Thermo Fisher Scientific) along with 10 μl of a 20x PPNA, PNA or peptide working solution. Growth was monitored by measuring the OD at 600 nm every 20 min in a Synergy H1 plate reader (Biotek) with continuous double-orbital shaking (237 cpm) at 37°C for 24 h.
# [2] = test system: Salmonella gene expression; assay: RNA-seq transcriptomic response; type: cell-based, Salmonella enterica serovar Typhimurium; conditions: 15 min; for number of differentially expressed genes: absolute fold change >2 and FDR-adjusted P-value <0.001 versus water; for number of differentially expressed genes / logFC AmgR / logFC mig-14 / logFC virK: 5 μM KFF-/RXR-constructs
# Procedure: Bacterial overnight cultures were diluted 1:100 in fresh MHB and grown to OD600 0.5. The obtained cultures were diluted to ∼10^6 cfu/ml in non-cation-adjusted MHB. Afterward, the bacterial solution was transferred into low-binding 5 ml tubes (LABsolute) along with the 20× PNA, peptide or PPNA solution. The final concentrations were 5 μM for KFF- and RXR-PNAs, and 10 μM for Tat-PNAs. Equimolar concentrations were used for the respective peptide control conditions. As a negative control, cells were treated with the respective volume of sterile nuclease-free water, which was used as solvent for the test compounds.
# A time kinetic was performed for subsequent northern blot analysis (5, 10, 15 min), in which the reaction was stopped at the indicated time points by using RNAprotect Bacteria (Qiagen). For RNA-seq analyses, adding RNAprotect Bacteria at 15 min post treatment stopped the reactions with the indicated PPNA constructs or the respective peptide. After vortexing for 5 s, the samples were incubated at room temperature for 10 min, followed by cell pelleting at 4°C and 21 100 ×g for 20 min. Pellets were directly used for RNA isolation or stored at –20°C (<2 days) until further processing. RNA was purified from bacterial pellets using isolation protocol #3, as described above (0.5 mg/ml lysozyme, miRNeasy).
# DNase treatment, cDNA library preparation and sequencing was conducted at Vertis (Munich, Germany). The RNA samples were first fragmented using ultrasound (4 pulses of 30 s each at 4°C). Then, an oligonucleotide adapter was ligated to the 3′ ends of the RNA molecules. First-strand cDNA synthesis was performed using M-MLV reverse transcriptase and the 3′ adapter as primer. The first-strand cDNA was purified and the 5′ Illumina TruSeq sequencing adapter was ligated to the 3′ end of the antisense cDNA. The resulting cDNA was PCR-amplified to about 10–20 ng/μl using a high fidelity DNA polymerase. The cDNA was purified using the Agencourt AMPure XP kit (Beckman Coulter Genomics) and was analyzed by capillary electrophoresis. For Illumina NextSeq sequencing, the samples were pooled in approximately equimolar amounts. The cDNA pool was sequenced on an Illumina NextSeq 500 system using 75 bp read length.
# Reads from the RNA-Seq experiments were trimmed, filtered and mapped against the S. enterica subsp. enterica serovar Typhimurium SL1344 reference genome and the three plasmids pSLT_SL1344, pCol1B9_SL1344 (other name is p2), and pRSF1010_SL1344 ([19]). BBDuk was applied to trim bases with a Phred quality score of <10, and adapters were removed simultaneously. Reads were then mapped against the reference genome using BBMap (v38.84) and then assigned genomic features, including both coding sequences and annotated sRNAs ([19],[29]) using the featureCounts method of the Subread (2.0.1) package.
# All downstream analysis was performed using packages from the R/Bioconductor project. The raw read counts were imported and analyzed with edgeR (v3.30.0). Each set of PNA-peptide conjugate experiments (i.e. experiments with KFF, RXR and Tat peptide) was analyzed simultaneously. Genes with less than 14.6 counts per million (CPM) in at least three libraries were filtered. This cutoff value was calculated using 10/L, where L is the library size of the smallest sample (minimum library size) in millions.
# Raw read counts were normalized by trimmed mean of M values (TMM) normalization. Differential expression analysis was conducted using edgeR ([31]). Estimation of quasi-likelihood (QL) dispersions was then run with the […] function. Then contrasts between all samples versus the water controls were created as input for the glmQLTest function.
# Genes with an absolute fold change >2 and an adjusted P-value (Benjamini–Hochberg, ([32])) <0.001 were considered differentially expressed.
# SL1344 ΔphoP = assay: MIC determination by broth microdilution; type: cell-based, Salmonella enterica serovar Typhimurium; conditions: Table 3; ∼10^5 cfu/ml; three biological replicates
# Procedure: as §1
# Fig. S4. Growth kinetics for MIC determ ination of 10^5 cfu/m l Salmonella wt (SL1344) and its isogenic ∆phoP m utant in the pres ence of var ying concentrations of the indicated conjugates. ( A) KFF-acpP, KFF-acpP-scram bled (scr) or KFF peptide in serial dilutions from 10 µM to 0.3 µM. ( B) RXR- acpP, RXR-acpP-scram bled (scr) or RXR peptide in seria l d ilutions f rom 10 µM to 0. 3 µM. ( C) T at-acpP, T at-acpP-scrambled (scr) or T at peptide in serial dilutions from 20 µM to 0.6 µM. D ata represent the average of three biological replicates, error bars indicate standard er ror of the m ean […]
# (§2) (1 picture or pasted object on this page, not shown here)
# [3] = test system: wild-type Salmonella enterica serovar Typhimurium strain LT2; assay: MIC determination by broth microdilution; type: cell-based; conditions: Table 3; ∼10^5 cfu/ml; three biological replicates
# Procedure: as §1
# (§3) Fig. S5. Growth k inetics for MIC determ ination of 10^5 cfu/m l Salmonella wt (LT 2) and its isogenic
# (§4) Pho PC m utant in the presen ce of var ying co ncentra tio n s of the in dicat ed co njugat e s. ( A) KFF-acpP,
# (§5) KFF-acpP-scram bled (scr) or KFF peptide in s erial dilutions from 10 µM to 0.3 µM. ( B) RXR- acpP,
# (§6) RXR- acpP-scram bled (scr) or RXR peptide in serial dilutions from 10 µM to 0.3 µ M. ( C) T at-acpP,
# (§7) T at-acpP-scram bled (scr) or T at peptide in serial dilutions from 20 µM to 0.6 µM. Data represent
# (§8) the average of three biological replicates, error bars indicate standard error of the m ean (SEM).
# as §2
# LT2 PhoP^C = assay: MIC determination by broth microdilution; type: cell-based, Salmonella enterica serovar Typhimurium; conditions: Table 3; ∼10^5 cfu/ml; three biological replicates
# Procedure: as §1, §3, §4, §5, §6, §7, §8, §2
# [4] = wild-type (wt) serovar Typhimurium strain SL1344, 24 h
# [5] = edgeR, versus water, 10 μM Tat-constructs, triplicates
# [6] = edgeR, versus water, 5 μM, triplicates
# [7] = edgeR, versus water, 5 μM RXR-constructs, 10 μM Tat-constructs, triplicates
# [8] = edgeR, versus water, 10 μM, triplicates
# [9] = Table 1, ∼10^5 cfu/ml, non-cation-adjusted MHB, 37°C, 24 h, lowest concentration with OD600 < 0.1
# [10] = edgeR, versus water, 5 μM RXR-constructs, 10 μM Tat-constructs, triplicates, listed as PNATATscr
compound,measurement,setting,value
"CC(=O)N[C@@H](CCCCN)C(=O)N[C@@H](Cc1ccccc1)C(=O)N[C@@H](Cc1ccccc1)C(=O)N[C@@H](CCCCN)C(=O)N[C@@H](Cc1ccccc1)C(=O)N[C@@H](Cc1ccccc1)C(=O)N[C@@H](CCCCN)C(=O)N[C@@H](Cc1ccccc1)C(=O)N[C@@H](Cc1ccccc1)C(=O)N[C@@H](CCCCN)C(=O)O [KFF, reference compound] (Ac-KFFKFFKFFK-OH; C-terminus assumed)",MIC,[1]; [4],>10 µM
same,"MIC in μM, SL1344 wt",[1]; [4],>10 µM
same,number of differentially expressed genes,[2]; 10 μM Tat-constructs,32
same,upregulation of AmgR transcript levels,"[2]; RNA-seq, 5 μM",~4 fold
same,logFC AmgR,[2]; [5],1.914
same,logFC mig-14,[2]; [5],2.101
same,logFC virK,[2]; [5],2.978
same,logFC yfbE,[2]; [6],1.473
same,logFC yjeH,[2]; [6],1.189
"CC(=O)N[C@@H](CCCNC(=N)N)C(=O)NCCCCCC(=O)N[C@@H](CCCNC(=N)N)C(=O)N[C@@H](CCCNC(=N)N)C(=O)NCCCCCC(=O)N[C@@H](CCCNC(=N)N)C(=O)N[C@@H](CCCNC(=N)N)C(=O)NCCCCCC(=O)N[C@@H](CCCNC(=N)N)C(=O)N[C@@H](CCCNC(=N)N)C(=O)NCCCCCC(=O)N[C@@H](CCCNC(=N)N)C(=O)NCCCCCC(=O)O [RXR, reference compound] (Ac-R[Ahx]RR[Ahx]RR[Ahx]RR[Ahx]R[Ahx]-OH; C-terminus assumed)",MIC,[1]; [4],>10 µM
same,"MIC in μM, SL1344 wt",[1]; [4],>10 µM
same,number of differentially expressed genes,[2]; 10 μM Tat-constructs,26
same,fold change in gene expression of phoQ,"[2]; RNA-seq, 5 μM, below cutoff of >2",1.87 fold
same,logFC AmgR,[2]; [5],1.916
same,logFC mig-14,[2]; [5],1.873
same,logFC virK,[2]; [5],2.819
same,logFC mgtA,[2]; [7],1.432
same,logFC yfbE,[2]; [6],1.219
"CC(C)C[C@H](NC(=O)[C@H](CCCNC(=N)N)NC(=O)[C@@H](NC(=O)[C@@H]1CCCN1C(=O)[C@@H]1CCCN1C(=O)[C@@H]1CCCN1C(=O)[C@H](CC(C)C)NC(=O)[C@H](CCCNC(=N)N)NC(=O)[C@@H](NC(=O)[C@@H]1CCCN1C(=O)[C@@H]1CCCN1C(=O)[C@@H]1CCCN1C(=O)[C@H](CC(C)C)NC(=O)[C@H](CCCNC(=N)N)NC(=O)[C@@H](N)C(C)C)C(C)C)C(C)C)C(=O)N1CCC[C@H]1C(=O)N1CCC[C@H]1C(=O)N1CCC[C@H]1C(=O)O [SAP, reference compound] (H-VRLPPPVRLPPPVRLPPP-OH; N-terminus and C-terminus assumed)",MIC,[1]; [4],>10 µM
"CC(C)C[C@H](NC(=O)[C@H](CCC(=O)O)NC(=O)[C@@H](NC(=O)[C@@H]1CCCN1C(=O)[C@@H]1CCCN1C(=O)[C@@H]1CCCN1C(=O)[C@H](CC(C)C)NC(=O)[C@H](CCC(=O)O)NC(=O)[C@@H](NC(=O)[C@@H]1CCCN1C(=O)[C@@H]1CCCN1C(=O)[C@@H]1CCCN1C(=O)[C@H](CC(C)C)NC(=O)[C@H](CCC(=O)O)NC(=O)[C@@H](N)C(C)C)C(C)C)C(C)C)C(=O)N1CCC[C@H]1C(=O)N1CCC[C@H]1C(=O)N1CCC[C@H]1C(=O)O [SAPE, reference compound] (H-VELPPPVELPPPVELPPP-OH; N-terminus and C-terminus assumed)",MIC,[1]; [4],>10 µM
"CC(=O)NCC(=O)N[C@@H](CCCNC(=N)N)C(=O)N[C@@H](CCCCN)C(=O)N[C@@H](CCCCN)C(=O)N[C@@H](CCCCN)C(=O)N[C@@H](CCCNC(=N)N)C(=O)N[C@@H](CCCNC(=N)N)C(=O)N[C@@H](CCC(N)=O)C(=O)N[C@@H](CCCNC(=N)N)C(=O)N[C@@H](CCCNC(=N)N)C(=O)N[C@@H](CCCNC(=N)N)C(=O)N[C@@H](Cc1ccc(O)cc1)C(=O)N[C@@H](CCCCN)C(=O)O [Tat, reference compound] (Ac-GRKKKRRQRRRYK-OH)","MIC in μM, SL1344 wt",[1]; [4],>20 µM
same,number of differentially expressed genes,[2]; 10 μM Tat-constructs,97
same,"maximum fold change, mgtB","[2]; RNA-seq, 10 μM",35 fold
same,logFC AmgR,[2]; [5],3.7167
same,logFC virK,[2]; [5],4.014
same,logFC mgtA,[2]; [7],2.72
same,logFC cigR,[2]; [8],3.46
same,logFC phoN,[2]; [8],2.478
"GRKKKRRQRRRYK [Tat-acpP-scr, Tat peptide conjugated to scrambled control PNA]",MIC,[1]; [9],>20 µM
same,MIC,"[1]; Table 2, ∼10^6 cfu/ml, non-cation-adjusted MHB, 37°C, 24 h, performed three times",>40 µM
same,"MIC in μM, SL1344 wt","[1]; Table 3, ∼10^5 cfu/ml, three biological replicates",>20 µM
same,"MIC in μM, SL1344 ΔphoP",SL1344 ΔphoP,20 µM
same,"MIC in μM, LT2 wt",[3],>20 µM
same,"number of differentially expressed sRNAs, apart from AmgR upregulation","[2]; RNA-seq, 10 μM, listed as Tat-acpP-scrambled",13
same,logFC SL1344_0066A,[2]; [10],4.787
same,logFC SL1344_2742,[2]; [10],4.052
same,logFC SL1344_1472,[2]; [8],3.687
same,logFC ccmE2,[2]; [8],4.962
same,logFC recJ,"[2]; edgeR, versus water, 10 μM, triplicates, listed as PNATATscr",2.253
same,"MIC in μM, LT2 PhoP^C",LT2 PhoP^C,>20 µM
RQIKIWFQNRRMKWKK [ANT-acpP-scr],MIC,[1]; [9],>10 µM
RQIKIWFQNRRMKWKK [ANT-acpP],MIC,"[1]; Table 1, ∼10^5 cfu/ml, non-cation-adjusted MHB, 37°C, 24 h",12 µg/mL
same,MIC,[1]; [9],3.3 µM
VELPPPVELPPPVELPPP [SAPE-acpP-scr],MIC,[1]; [9],>10 µM
VRLPPPVRLPPPVRLPPP [SAP-acpP-scr],MIC,[1]; [9],>10 µM
